Legend:
[1] = target: GAK (Homo sapiens, UniProt O14976); experiment: biochemical; details: read-out: %Ctrl @ 1000nM
[2] = target: FLT3-autoinhibited (Homo sapiens, UniProt P36888); experiment: biochemical; details: read-out: %Ctrl @ 1000nM
[3] = target: T1, MEK1 (Homo sapiens, UniProt Q02750); experiment: biochemical; details: read-out: %Ctrl @ 1000nM
T1 construct: gene MAP2K1

[4] = target: T2, TIE2 (Homo sapiens, UniProt Q02763); experiment: biochemical; details: read-out: %Ctrl @ 1000nM
T2 construct: gene TEK

[5] = target: TBK1 (Homo sapiens, UniProt Q9UHD2); experiment: biochemical; details: read-out: %Ctrl @ 1000nM
[6] = target: PRKX (Homo sapiens, UniProt P51817); experiment: biochemical; details: read-out: %Ctrl @ 1000nM
[7] = target: AURKA (Homo sapiens, UniProt O14965); experiment: biochemical; details: read-out: %Ctrl @ 1000nM
[8] = target: SRPK1 (Homo sapiens, UniProt Q96SB4); experiment: biochemical; details: read-out: %Ctrl @ 1000nM
[9] = target: RPS6KA5(Kin.Dom.1-N-terminal) (Homo sapiens, UniProt O75582); experiment: biochemical; details: read-out: %Ctrl @ 1000nM
[10] = target: FLT3(ITD) (Homo sapiens, UniProt P36888, ITD); experiment: biochemical; details: read-out: %Ctrl @ 1000nM
[11] = target: STK39 (Homo sapiens, UniProt Q9UEW8); experiment: biochemical; details: read-out: %Ctrl @ 1000nM
[12] = target: CAMK4 (Homo sapiens, UniProt Q16566); experiment: biochemical; details: read-out: %Ctrl @ 1000nM
[13] = target: EGFR(L858R,T790M) (Homo sapiens, UniProt P00533, L858R/T790M); experiment: biochemical; details: read-out: %Ctrl @ 1000nM
[14] = target: FLT3(ITD,F691L) (Homo sapiens, UniProt P36888, F691L/ITD); experiment: biochemical; details: read-out: %Ctrl @ 1000nM
[15] = target: LRRK2 (Homo sapiens, UniProt Q5S007); experiment: biochemical; details: read-out: %Ctrl @ 1000nM
[16] = target: MAP3K1 (Homo sapiens, UniProt Q13233); experiment: biochemical; details: read-out: %Ctrl @ 1000nM
[17] = target: CSNK1A1L (Homo sapiens, UniProt Q8N752); experiment: biochemical; details: read-out: %Ctrl @ 1000nM
[18] = target: NLK (Homo sapiens, UniProt Q9UBE8); experiment: biochemical; details: read-out: %Ctrl @ 1000nM
[19] = target: TNIK (Homo sapiens, UniProt Q9UKE5); experiment: biochemical; details: read-out: %Ctrl @ 1000nM
[20] = target: PLK3 (Homo sapiens, UniProt Q9H4B4); experiment: biochemical; details: read-out: %Ctrl @ 1000nM
[21] = target: JAK2(JH1domain-catalytic) (Homo sapiens, UniProt O60674); experiment: biochemical; details: read-out: %Ctrl @ 1000nM
[22] = target: KIT(D816V) (Homo sapiens, UniProt P10721, D816V); experiment: biochemical; details: read-out: %Ctrl @ 1000nM
[23] = target: ABL1-nonphosphorylated (Homo sapiens, UniProt P00519); experiment: biochemical; details: read-out: %Ctrl @ 1000nM
[24] = target: BRAF (Homo sapiens, UniProt P15056); experiment: biochemical; details: read-out: %Ctrl @ 1000nM
[25] = target: ROS1 (Homo sapiens, UniProt P08922); experiment: biochemical; details: read-out: %Ctrl @ 1000nM
[26] = target: HASPIN (Homo sapiens, UniProt Q8TF76); experiment: biochemical; details: read-out: %Ctrl @ 1000nM
[27] = target: EPHA4 (Homo sapiens, UniProt P54764); experiment: biochemical; details: read-out: %Ctrl @ 1000nM
[28] = target: PDGFRA (Homo sapiens, UniProt P16234); experiment: biochemical; details: read-out: %Ctrl @ 1000nM
[29] = target: ITK (Homo sapiens, UniProt Q08881); experiment: biochemical; details: read-out: %Ctrl @ 1000nM
[30] = target: EPHA7 (Homo sapiens, UniProt Q15375); experiment: biochemical; details: read-out: %Ctrl @ 1000nM
[31] = target: INSRR (Homo sapiens, UniProt P14616); experiment: biochemical; details: read-out: %Ctrl @ 1000nM
[32] = target: LTK (Homo sapiens, UniProt P29376); experiment: biochemical; details: competition binding; read-out: %Ctrl @ 1000nM
[33] = Pharmacokinetics study in SD rats; type: in vivo; details: male, Sprague-Dawley, rat, whole blood, iv, 4 mg/kg, read-out: CL (L/hr/kg) in rats (converted)
[34] = target: T3, PFPK5(P.falciparum) (Plasmodium falciparum, UniProt P61075); experiment: biochemical; details: competition binding; read-out: %Ctrl @ 1000nM
T3 construct: gene CRK2

[35] = target: CDK11 (Homo sapiens, UniProt Q9BWU1); experiment: KINOMEscan binding constant, CDK11; details: read-out: Binding affinity (Kd, nM) CDK11
CDK11, sequence (Q9BWU1 whole entry): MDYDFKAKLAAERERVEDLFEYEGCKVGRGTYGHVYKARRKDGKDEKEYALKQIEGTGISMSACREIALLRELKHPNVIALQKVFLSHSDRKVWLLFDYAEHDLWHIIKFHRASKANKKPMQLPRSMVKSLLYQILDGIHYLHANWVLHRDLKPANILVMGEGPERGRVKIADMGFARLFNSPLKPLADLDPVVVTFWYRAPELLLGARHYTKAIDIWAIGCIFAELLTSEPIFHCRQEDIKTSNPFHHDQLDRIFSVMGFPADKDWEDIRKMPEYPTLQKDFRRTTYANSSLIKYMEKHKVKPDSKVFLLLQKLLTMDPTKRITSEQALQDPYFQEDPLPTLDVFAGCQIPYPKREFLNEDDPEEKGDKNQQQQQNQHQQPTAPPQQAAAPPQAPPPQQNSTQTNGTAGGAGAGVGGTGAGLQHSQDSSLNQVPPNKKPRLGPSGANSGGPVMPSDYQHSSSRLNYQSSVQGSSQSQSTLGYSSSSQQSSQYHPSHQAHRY

ITK, sequence (Q08881 whole entry): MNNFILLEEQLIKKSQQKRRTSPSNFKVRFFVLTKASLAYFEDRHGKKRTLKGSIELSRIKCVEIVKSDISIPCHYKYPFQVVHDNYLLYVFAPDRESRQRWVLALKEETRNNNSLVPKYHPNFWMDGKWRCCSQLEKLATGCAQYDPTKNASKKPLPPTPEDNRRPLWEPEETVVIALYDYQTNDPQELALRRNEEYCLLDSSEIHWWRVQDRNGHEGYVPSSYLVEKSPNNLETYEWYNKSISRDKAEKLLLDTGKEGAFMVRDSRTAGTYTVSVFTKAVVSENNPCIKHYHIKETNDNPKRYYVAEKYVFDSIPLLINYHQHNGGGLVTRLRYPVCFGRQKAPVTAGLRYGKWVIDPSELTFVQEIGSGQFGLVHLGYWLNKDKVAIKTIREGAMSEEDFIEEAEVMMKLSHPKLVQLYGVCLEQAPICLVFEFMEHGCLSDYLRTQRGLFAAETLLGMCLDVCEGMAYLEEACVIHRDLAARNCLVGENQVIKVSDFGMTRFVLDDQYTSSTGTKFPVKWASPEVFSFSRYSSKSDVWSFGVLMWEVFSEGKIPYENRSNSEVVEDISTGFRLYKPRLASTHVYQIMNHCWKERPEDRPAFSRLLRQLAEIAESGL
EPHA4, sequence (P54764 whole entry): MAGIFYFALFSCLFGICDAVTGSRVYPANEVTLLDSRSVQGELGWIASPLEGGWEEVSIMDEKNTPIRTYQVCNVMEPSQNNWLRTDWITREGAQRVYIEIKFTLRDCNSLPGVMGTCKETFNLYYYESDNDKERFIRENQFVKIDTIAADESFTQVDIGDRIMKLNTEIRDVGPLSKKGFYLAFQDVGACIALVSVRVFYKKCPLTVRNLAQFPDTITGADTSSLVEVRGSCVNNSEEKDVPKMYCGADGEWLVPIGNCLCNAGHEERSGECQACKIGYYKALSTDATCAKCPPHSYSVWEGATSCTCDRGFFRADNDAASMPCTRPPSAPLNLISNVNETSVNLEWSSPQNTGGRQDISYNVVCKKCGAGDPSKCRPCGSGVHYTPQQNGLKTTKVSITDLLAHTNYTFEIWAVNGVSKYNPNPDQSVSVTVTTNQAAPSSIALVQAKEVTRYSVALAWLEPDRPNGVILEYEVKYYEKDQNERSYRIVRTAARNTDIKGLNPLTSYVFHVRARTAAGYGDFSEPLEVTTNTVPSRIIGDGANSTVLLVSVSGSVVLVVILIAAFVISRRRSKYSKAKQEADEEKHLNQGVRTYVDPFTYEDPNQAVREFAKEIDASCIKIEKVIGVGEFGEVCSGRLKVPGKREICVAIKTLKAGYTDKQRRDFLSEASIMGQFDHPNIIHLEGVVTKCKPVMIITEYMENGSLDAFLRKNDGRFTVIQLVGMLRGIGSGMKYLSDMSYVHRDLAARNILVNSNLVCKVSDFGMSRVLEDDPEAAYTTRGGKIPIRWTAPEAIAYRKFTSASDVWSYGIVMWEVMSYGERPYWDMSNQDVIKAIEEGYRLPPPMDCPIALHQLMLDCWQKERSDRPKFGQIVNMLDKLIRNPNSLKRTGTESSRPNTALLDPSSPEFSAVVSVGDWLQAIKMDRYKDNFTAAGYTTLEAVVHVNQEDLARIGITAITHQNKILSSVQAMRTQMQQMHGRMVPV
ABL1-nonphosphorylated, sequence (P00519 whole entry): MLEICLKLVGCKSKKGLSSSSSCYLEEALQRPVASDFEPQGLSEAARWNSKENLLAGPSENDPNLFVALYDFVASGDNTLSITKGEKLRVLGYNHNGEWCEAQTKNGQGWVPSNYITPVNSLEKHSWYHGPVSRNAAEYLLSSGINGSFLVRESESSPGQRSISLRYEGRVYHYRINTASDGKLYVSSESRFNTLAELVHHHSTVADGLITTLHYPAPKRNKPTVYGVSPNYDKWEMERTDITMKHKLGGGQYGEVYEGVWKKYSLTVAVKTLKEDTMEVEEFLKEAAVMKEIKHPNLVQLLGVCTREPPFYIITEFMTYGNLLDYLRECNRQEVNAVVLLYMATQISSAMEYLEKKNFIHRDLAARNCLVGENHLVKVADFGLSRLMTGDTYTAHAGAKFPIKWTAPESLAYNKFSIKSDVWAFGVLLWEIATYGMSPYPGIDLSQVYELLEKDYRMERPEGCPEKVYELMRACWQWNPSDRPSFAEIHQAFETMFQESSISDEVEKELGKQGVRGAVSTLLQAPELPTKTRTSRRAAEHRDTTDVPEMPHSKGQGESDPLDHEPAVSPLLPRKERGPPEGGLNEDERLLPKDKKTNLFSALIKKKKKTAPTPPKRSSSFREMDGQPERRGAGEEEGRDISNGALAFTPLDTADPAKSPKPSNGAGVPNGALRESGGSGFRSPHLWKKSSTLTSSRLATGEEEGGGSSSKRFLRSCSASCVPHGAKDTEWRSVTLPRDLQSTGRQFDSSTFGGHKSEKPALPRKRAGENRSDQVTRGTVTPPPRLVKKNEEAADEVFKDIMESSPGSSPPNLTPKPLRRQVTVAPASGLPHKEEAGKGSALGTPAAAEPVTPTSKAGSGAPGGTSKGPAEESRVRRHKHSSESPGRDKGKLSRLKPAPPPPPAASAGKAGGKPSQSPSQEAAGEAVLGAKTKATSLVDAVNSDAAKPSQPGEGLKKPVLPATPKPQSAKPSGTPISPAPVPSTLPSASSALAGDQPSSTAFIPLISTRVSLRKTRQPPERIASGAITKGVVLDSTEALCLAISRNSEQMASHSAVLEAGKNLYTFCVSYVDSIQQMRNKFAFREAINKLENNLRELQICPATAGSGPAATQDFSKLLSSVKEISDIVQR
FLT3(ITD,F691L), sequence (P36888 564-993 F691L): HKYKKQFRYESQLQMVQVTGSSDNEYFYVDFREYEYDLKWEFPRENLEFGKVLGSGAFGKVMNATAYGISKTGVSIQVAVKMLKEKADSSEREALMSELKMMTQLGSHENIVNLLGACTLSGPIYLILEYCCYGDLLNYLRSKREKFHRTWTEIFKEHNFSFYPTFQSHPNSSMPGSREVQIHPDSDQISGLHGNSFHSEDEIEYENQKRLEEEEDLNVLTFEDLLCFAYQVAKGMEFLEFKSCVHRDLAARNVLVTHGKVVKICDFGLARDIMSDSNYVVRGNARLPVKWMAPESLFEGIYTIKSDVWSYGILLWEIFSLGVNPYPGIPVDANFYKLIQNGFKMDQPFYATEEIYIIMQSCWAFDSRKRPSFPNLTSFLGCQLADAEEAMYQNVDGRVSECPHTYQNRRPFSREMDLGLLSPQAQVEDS
SRPK1, sequence (Q96SB4 whole entry): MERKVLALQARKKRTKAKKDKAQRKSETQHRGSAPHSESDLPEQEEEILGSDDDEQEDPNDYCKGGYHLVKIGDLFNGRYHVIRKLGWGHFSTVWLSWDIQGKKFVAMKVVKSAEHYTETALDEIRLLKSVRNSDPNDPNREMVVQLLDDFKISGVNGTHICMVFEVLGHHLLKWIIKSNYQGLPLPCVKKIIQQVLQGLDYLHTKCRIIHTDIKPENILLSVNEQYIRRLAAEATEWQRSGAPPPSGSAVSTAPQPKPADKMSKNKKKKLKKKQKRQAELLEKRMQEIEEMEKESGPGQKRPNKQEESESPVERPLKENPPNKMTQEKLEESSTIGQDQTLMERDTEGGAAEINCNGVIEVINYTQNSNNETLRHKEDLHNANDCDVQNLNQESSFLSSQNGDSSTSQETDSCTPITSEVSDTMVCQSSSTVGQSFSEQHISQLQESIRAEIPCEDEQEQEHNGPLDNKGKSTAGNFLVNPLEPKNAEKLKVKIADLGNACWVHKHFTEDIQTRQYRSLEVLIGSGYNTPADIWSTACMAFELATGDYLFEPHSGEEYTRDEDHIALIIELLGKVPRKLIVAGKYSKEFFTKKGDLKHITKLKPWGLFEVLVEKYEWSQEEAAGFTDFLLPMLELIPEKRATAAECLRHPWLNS
PLK3, sequence (Q9H4B4 whole entry): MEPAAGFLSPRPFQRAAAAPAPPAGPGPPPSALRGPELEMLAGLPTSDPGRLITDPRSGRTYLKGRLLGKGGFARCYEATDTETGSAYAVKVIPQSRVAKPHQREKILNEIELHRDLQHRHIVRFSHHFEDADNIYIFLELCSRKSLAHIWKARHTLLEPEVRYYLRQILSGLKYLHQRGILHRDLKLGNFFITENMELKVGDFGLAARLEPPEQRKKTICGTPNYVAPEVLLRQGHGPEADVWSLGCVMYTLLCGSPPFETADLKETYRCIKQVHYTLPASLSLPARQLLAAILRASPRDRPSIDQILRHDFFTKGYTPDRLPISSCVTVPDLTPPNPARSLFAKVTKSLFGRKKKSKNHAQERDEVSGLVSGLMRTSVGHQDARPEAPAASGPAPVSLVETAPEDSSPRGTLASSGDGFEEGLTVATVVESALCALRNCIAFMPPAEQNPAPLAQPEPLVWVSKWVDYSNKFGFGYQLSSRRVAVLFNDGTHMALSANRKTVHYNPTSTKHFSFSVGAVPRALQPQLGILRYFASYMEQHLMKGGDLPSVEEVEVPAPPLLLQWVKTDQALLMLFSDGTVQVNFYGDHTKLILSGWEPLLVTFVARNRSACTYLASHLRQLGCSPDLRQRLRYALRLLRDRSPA
FLT3(ITD), sequence (P36888 564-993, change not shown): as the sequence (P36888 564-993 F691L) above, with L128F counted along it

Cc1cn(-c2cc(NC(=O)c3ccc4c(c3)CN(c3cncnc3)C[C@@H]4C)cc(C(F)(F)F)c2)cn1 [Compound 6j]
remaining activity at 1 µM [1]: 95% | remaining activity at 1 µM [2]: 100% | remaining activity at 1 µM [3]: 94% | remaining activity at 1 µM [4]: 64% | remaining activity at 1 µM [5]: 95% | remaining activity at 1 µM [6]: 96% | remaining activity at 1 µM [7]: 96% | remaining activity at 1 µM [8]: 100% | remaining activity at 1 µM [9]: 97% | remaining activity at 1 µM [10]: 71% | remaining activity at 1 µM [11]: 100% | remaining activity at 1 µM [12]: 86% | remaining activity at 1 µM [13]: 100% | remaining activity at 1 µM [14]: 100% | remaining activity at 1 µM [15]: 100% | remaining activity at 1 µM [16]: 95% | remaining activity at 1 µM [17]: 69% | remaining activity at 1 µM [18]: 61% | remaining activity at 1 µM [19]: 86% | remaining activity at 1 µM [20]: 100% | remaining activity at 1 µM [21]: 100% | remaining activity at 1 µM [22]: 77% | remaining activity at 1 µM [23]: 13% | remaining activity at 1 µM [24]: 96% | remaining activity at 1 µM [25]: 86% | remaining activity at 1 µM [26]: 100% | remaining activity at 1 µM [27]: 77% | remaining activity at 1 µM [28]: 100% | remaining activity at 1 µM [29]: 97% | remaining activity at 1 µM [30]: 62% | remaining activity at 1 µM [31]: 100% | remaining binding at 1 µM [32]: 73% | clearance [33]: 17.6 L/h/kg | remaining binding at 1 µM [34]: 100% | Kd [35]: 370 nM

Source: paper PMC5053573, “Structure-Based Design of Tetrahydroisoquinoline-7-carboxamides as Selective Discoidin Domain Receptor 1 (DDR1) Inhibitors” (Journal of Medicinal Chemistry, 2016)
